Here are results for 2 molecules from ChEMBL document CHEMBL5209589, “Membrane potential based transport assay for SLC1A3 using HEK293 JumpIn SLC1A3 OE cells” (2022).

The experiment has as its target Excitatory amino acid transporter 1 (Homo sapiens, UniProt P43003). The experiment can be described thus: Substrate uptake by the Excitatory Amino Acid Transporter 1 (EAAT1, SLC1A3) as assessed by the fluorescent FLIPR membrane potential dye in HEK-293 JumpIN-SLC1A3 cells (PubChem AID: 1745864). In kind it is functional, cell-based, HEK293.

Sequence of Excitatory amino acid transporter 1 (P43003 whole entry): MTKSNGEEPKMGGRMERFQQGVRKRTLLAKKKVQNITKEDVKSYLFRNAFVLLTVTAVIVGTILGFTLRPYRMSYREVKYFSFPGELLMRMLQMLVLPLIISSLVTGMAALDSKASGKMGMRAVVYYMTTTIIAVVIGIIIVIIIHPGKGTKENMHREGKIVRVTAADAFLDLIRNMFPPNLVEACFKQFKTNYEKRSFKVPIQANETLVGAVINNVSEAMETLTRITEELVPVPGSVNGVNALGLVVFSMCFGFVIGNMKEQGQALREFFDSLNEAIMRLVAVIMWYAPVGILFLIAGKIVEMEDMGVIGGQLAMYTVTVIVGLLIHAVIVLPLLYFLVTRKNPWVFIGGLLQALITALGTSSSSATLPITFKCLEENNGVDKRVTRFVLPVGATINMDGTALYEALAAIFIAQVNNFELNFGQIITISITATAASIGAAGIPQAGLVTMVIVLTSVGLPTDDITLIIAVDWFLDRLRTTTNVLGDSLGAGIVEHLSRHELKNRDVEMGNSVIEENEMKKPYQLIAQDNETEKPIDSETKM

Turning to `N[C@@H](CS)C(=O)O` [CYSTEINE], the EC50 stood at 376 µM.

Regarding `N[C@@H](CCC(=O)O)C(=O)O` [GLUTAMIC ACID], the EC50 is 16 µM.
